Measurements: patent US20260146062A1, “COMPOUNDS AND METHODS FOR TREATING DISEASES CAUSED BY VIRUSES AND BACTERIA” (The Trustees of Indiana University, priority 2022, published 2026)

Test system: SARS-CoV2 virus
Assay: Inhibition of Viral Replication (plaque count)
Type: cell-based
Conditions: with increased concentration of inhibitor

## CC(C)C[C@H](NC(=O)c1cc2ccccc2[nH]1)C(=O)NC(C=O)Cc1ccc(F)cc1 (stereo partly shown) [Compound 112]
  inhibition ability (FIG. 6): increased inhibition ability of Compound No. 112 with increased concentration
